# Test results: article PMC4486055 (Cancer chemotherapy and pharmacology, 2014)
# Entries after “also recorded” stand apart in the source; their conditions may differ. Like-named read-outs stand apart in the source and are kept apart here.
# Legend:
# advanced solid tumors = test: Tumor assessments according to RECIST version 1.0; assay type: in vivo, human; conditions: of 38 evaluable; AZD7762 plus gemcitabine
# pChk1ser345 and pH2AX = assay type: in vivo, human
# [1] = test system: patients with advanced solid tumors; conditions: for Serious AE possibly related to AZD7762: one patient
# Japanese patients = conditions: in combination with gemcitabine, bradycardia, hypertension, DLT troponin T increase; cited from earlier work
# [2] = Single-dose pharmacokinetics of AZD7762 in plasma and urine
# [3] = clinical development; cited from earlier work
# [4] = AZD7762 6 mg/gemcitabine 750 mg/m^2, 3x/cycle, n=6
# [5] = AZD7762 6 mg/gemcitabine 1,000 mg/m^2, 2x/cycle, n=2
# [6] = AZD7762 6 mg/gemcitabine 1,000 mg/m^2, 3x/cycle, n=1
# [7] = AZD7762 9 mg/gemcitabine 1,000 mg/m^2, n=3
# [8] = AZD7762 14 mg/gemcitabine 1,000 mg/m^2, n=6
# [9] = AZD7762 21 mg/gemcitabine 1,000 mg/m^2, n=3
# [10] = AZD7762 30 mg/gemcitabine 1,000 mg/m^2, n=7
# [11] = AZD7762 32 mg/gemcitabine 1,000 mg/m^2, n=6
# [12] = AZD7762 40 mg/gemcitabine 1,000 mg/m^2, n=8
# [13] = all doses, overall, 11/42 patients
# [14] = cycle 0 (AZD7762 alone), 6/42 patients
# [15] = cycle 1 onwards, AZD7762 6 mg plus gemcitabine 1,000 mg/m^2, 3x/cycle, n=1
smiles,measurement,setting,value
NC(=O)Nc1cc(-c2cccc(F)c2)sc1C(=O)N[C@H]1CCCNC1 [AZD7762],"Best response stable disease for ≥6–<12 weeks, patients",advanced solid tumors,five
same,"Disease progression as best response, patients",advanced solid tumors,20 patients
same,"Stable disease for ≥12 weeks, patients",advanced solid tumors,four
same,Change in staining of pChk1ser345 and pH2AX,"pChk1ser345 and pH2AX; 32 mg cohort, AZD7762 after gemcitabine",small increases in staining
same,H-scores for both biomarkers (out of 12),"pChk1ser345 and pH2AX; hair follicles from skin biopsies, pChk1ser345 and pH2AX",0–3
same,Change in staining of pChk1ser345 and pH2AX,pChk1ser345 and pH2AX; other dose cohorts,no increased staining
same,"Blood ALP increased, number of patients (%)",[1]; [4],0 patients (%)
same,"Constipation, number of patients (%)",[1]; [4],2 (33) patients (%)
same,"Decreased appetite, number of patients (%)",[1]; [4],2 (33) patients (%)
same,"Dehydration, number of patients (%)",[1]; [4],2 (33) patients (%)
same,"Diarrhea, number of patients (%)",[1]; [4],0 patients (%)
same,"Neutropenia/leukopenia, number of patients (%)",[1]; [4],0 patients (%)
same,"Thrombocytopenia, number of patients (%)",[1]; [4],2 (33) patients (%)
same,"Vomiting, number of patients (%)",[1]; [4],2 (33) patients (%)
same,"Decreased appetite, number of patients (%)",[1]; [5],0 patients (%)
same,"Diarrhea, number of patients (%)",[1]; [5],0 patients (%)
same,"Headache, number of patients (%)",[1]; [5],0 patients (%)
same,"Nausea, number of patients (%)",[1]; [5],0 patients (%)
same,"Neutropenia/leukopenia, number of patients (%)",[1]; [5],0 patients (%)
same,"Thrombocytopenia, number of patients (%)",[1]; [5],0 patients (%)
same,"ALT/AST increased, number of patients (%)",[1]; [6],0 patients (%)
same,"Blood ALP increased, number of patients (%)",[1]; [6],0 patients (%)
same,"Constipation, number of patients (%)",[1]; [6],0 patients (%)
same,"Decreased appetite, number of patients (%)",[1]; [6],0 patients (%)
same,"Dehydration, number of patients (%)",[1]; [6],0 patients (%)
same,"Headache, number of patients (%)",[1]; [6],0 patients (%)
same,"Thrombocytopenia, number of patients (%)",[1]; [6],0 patients (%)
same,"ALT/AST increased, number of patients (%)",[1]; [7],0 patients (%)
same,"Anemia/Hb decreased, number of patients (%)",[1]; [7],1 (33) patients (%)
same,"Blood ALP increased, number of patients (%)",[1]; [7],0 patients (%)
same,"Constipation, number of patients (%)",[1]; [7],1 (33) patients (%)
same,"Decreased appetite, number of patients (%)",[1]; [7],0 patients (%)
same,"Dehydration, number of patients (%)",[1]; [7],1 (33) patients (%)
same,"Diarrhea, number of patients (%)",[1]; [7],1 (33) patients (%)
same,"Fatigue, number of patients (%)",[1]; [7],1 (33) patients (%)
same,"Nausea, number of patients (%)",[1]; [7],1 (33) patients (%)
same,"Neutropenia/leukopenia, number of patients (%)",[1]; [7],0 patients (%)
same,"Thrombocytopenia, number of patients (%)",[1]; [7],1 (33) patients (%)
same,"Vomiting, number of patients (%)",[1]; [7],0 patients (%)
same,"ALT/AST increased, number of patients (%)",[1]; [8],0 patients (%)
same,"Anemia/Hb decreased, number of patients (%)",[1]; [8],0 patients (%)
same,"Blood ALP increased, number of patients (%)",[1]; [8],0 patients (%)
same,"Constipation, number of patients (%)",[1]; [8],2 (33) patients (%)
same,"Dehydration, number of patients (%)",[1]; [8],0 patients (%)
same,"Headache, number of patients (%)",[1]; [8],0 patients (%)
same,"Neutropenia/leukopenia, number of patients (%)",[1]; [8],2 (33) patients (%)
same,"ALT/AST increased, number of patients (%)",[1]; [9],0 patients (%)
same,"Anemia/Hb decreased, number of patients (%)",[1]; [9],0 patients (%)
same,"Blood ALP increased, number of patients (%)",[1]; [9],0 patients (%)
same,"Constipation, number of patients (%)",[1]; [9],0 patients (%)
same,"Dehydration, number of patients (%)",[1]; [9],1 (33) patients (%)
same,"Diarrhea, number of patients (%)",[1]; [9],0 patients (%)
same,"Headache, number of patients (%)",[1]; [9],0 patients (%)
same,"Nausea, number of patients (%)",[1]; [9],1 (33) patients (%)
same,"Neutropenia/leukopenia, number of patients (%)",[1]; [9],0 patients (%)
same,"Pyrexia, number of patients (%)",[1]; [9],0 patients (%)
same,"Thrombocytopenia, number of patients (%)",[1]; [9],0 patients (%)
same,"Vomiting, number of patients (%)",[1]; [9],1 (33) patients (%)
same,"Constipation, number of patients (%)",[1]; [10],1 (14) patients (%)
same,"Decreased appetite, number of patients (%)",[1]; [10],0 patients (%)
same,"Dehydration, number of patients (%)",[1]; [10],0 patients (%)
same,"Fatigue, number of patients (%)",[1]; [10],0 patients (%)
same,"Headache, number of patients (%)",[1]; [10],0 patients (%)
same,"Nausea, number of patients (%)",[1]; [10],1 (14) patients (%)
same,"Pyrexia, number of patients (%)",[1]; [10],0 patients (%)
same,"Thrombocytopenia, number of patients (%)",[1]; [10],0 patients (%)
same,"ALT/AST increased, number of patients (%)",[1]; [11],0 patients (%)
same,"Blood ALP increased, number of patients (%)",[1]; [11],0 patients (%)
same,"Constipation, number of patients (%)",[1]; [11],0 patients (%)
same,"Decreased appetite, number of patients (%)",[1]; [11],2 (33) patients (%)
same,"Diarrhea, number of patients (%)",[1]; [11],2 (33) patients (%)
same,"Anemia/Hb decreased, number of patients (%)",[1]; [12],2 (25) patients (%)
same,"Decreased appetite, number of patients (%)",[1]; [12],0 patients (%)
same,"Dehydration, number of patients (%)",[1]; [12],0 patients (%)
same,"Fatigue, number of patients (%)",[1]; [12],2 (25) patients (%)
same,"Headache, number of patients (%)",[1]; [12],0 patients (%)
same,"Nausea, number of patients (%)",[1]; [12],2 (25) patients (%)
same,"Pyrexia, number of patients (%)",[1]; [12],2 (25) patients (%)
same,"Thrombocytopenia, number of patients (%)",[1]; [12],2 (25) patients (%)
same,"ALT/AST increase, patients with AE overall",[1]; [13],26%
same,"Nausea, patients with AE overall",[1]; [13],26%
same,"Pyrexia, patients with AE overall",[1]; [13],26%
same,"Anemia/Hb decrease, patients with AE overall","[1]; all doses, overall, 12/42 patients",29%
same,"Neutropenia/leukopenia, patients with AE overall","[1]; all doses, overall, 15/42 patients",36%
same,"Fatigue, patients with AE overall","[1]; all doses, overall, 17/42 patients",41%
same,"ALT/AST increased, number of patients (%)","[1]; all doses, total n=42",11 (26) patients (%)
same,"Dehydration, number of patients (%)","[1]; all doses, total n=42",6 (14) patients (%)
same,"Nausea, number of patients (%)","[1]; all doses, total n=42",11 (26) patients (%)
same,"Pyrexia, number of patients (%)","[1]; all doses, total n=42",11 (26) patients (%)
same,"Nausea, patients with AE","[1]; cycle 0 (AZD7762 alone), 5/42 patients",12%
same,"Fatigue, patients with AE",[1]; [14],14%
same,"Vomiting, patients with AE",[1]; [14],14%
same,"AEs of CTCAE grade ≥3, patients","[1]; cycle 0 (AZD7762 alone), 8/42 patients",19%
same,"Adverse events grade ≥3, patients","[1]; cycle 0, AZD7762 monotherapy 6 mg (6/750 cohort, 3x/cycle, n=6)",2 (33) n (%)
same,"Adverse events grade ≥3, patients","[1]; cycle 0, AZD7762 monotherapy 6 mg (6/1,000 cohort, 2x/cycle, n=2)",0 n (%)
same,"Adverse events grade ≥3, patients","[1]; cycle 0, AZD7762 monotherapy 6 mg (6/1,000 cohort, 3x/cycle, n=1)",0 n (%)
same,"Adverse events grade ≥3, patients","[1]; cycle 0, AZD7762 monotherapy 9 mg, n=3",0 n (%)
same,"Adverse events grade ≥3, patients","[1]; cycle 0, AZD7762 monotherapy 14 mg, n=6",0 n (%)
same,"Adverse events grade ≥3, patients","[1]; cycle 0, AZD7762 monotherapy 21 mg, n=3",0 n (%)
same,"Adverse events grade ≥3, patients","[1]; cycle 0, AZD7762 monotherapy 30 mg, n=7",0 n (%)
same,"Adverse events grade ≥3, patients","[1]; cycle 0, AZD7762 monotherapy 32 mg, n=6",3 (50) n (%)
same,"Grade ≥3 adverse events, term","[1]; cycle 0, AZD7762 monotherapy 32 mg, n=6, n=1 per term unless stated",Hyponatremia Peripheral neuropathy Troponin I increased
same,"Adverse events grade ≥3, patients","[1]; cycle 0, AZD7762 monotherapy 40 mg, n=8",3 (38) n (%)
same,"Grade ≥3 adverse events, term","[1]; cycle 0, AZD7762 monotherapy 40 mg, n=8, n=1 per term unless stated",Device-related infection Myocardial ischemia Hyperglycemia
same,"AEs of CTCAE grade ≥3, patients","[1]; cycle 1 (AZD7762 in combination with gemcitabine), 22/42 patients",52%
same,Non-cardiac dose-limiting toxicity,"[1]; cycle 1, one patient at AZD7762 32 mg with gemcitabine 1,000 mg/m^2",grade 3 nausea/vomiting for 2 days
same,Non-cardiac dose-limiting toxicity,"[1]; cycle 1, one patient at AZD7762 40 mg with gemcitabine 1,000 mg/m^2",grade 4 neutropenia complicated by ≥38.5 °C fever for 2 days
same,"Adverse events grade ≥3, patients","[1]; cycle 1 onwards, AZD7762 6 mg plus gemcitabine 750 mg/m^2, 3x/cycle, n=6",5 (83) n (%)
same,"Adverse events grade ≥3, patients","[1]; cycle 1 onwards, AZD7762 6 mg plus gemcitabine 1,000 mg/m^2, 2x/cycle, n=2",1 (50) n (%)
same,"Adverse events grade ≥3, patients",[1]; [15],1 (100) n (%)
same,"Grade ≥3 adverse events, term",[1]; [15],Neutropenia (n = 2)
same,"Adverse events grade ≥3, patients","[1]; cycle 1 onwards, AZD7762 9 mg plus gemcitabine 1,000 mg/m^2, n=3",1 (33) n (%)
same,"Grade ≥3 adverse events, term","[1]; cycle 1 onwards, AZD7762 9 mg plus gemcitabine 1,000 mg/m^2, n=3, n=1 per term",Thrombocytopenia
same,"Adverse events grade ≥3, patients","[1]; cycle 1 onwards, AZD7762 14 mg plus gemcitabine 1,000 mg/m^2, n=6",2 (33) n (%)
same,"Adverse events grade ≥3, patients","[1]; cycle 1 onwards, AZD7762 21 mg plus gemcitabine 1,000 mg/m^2, n=3",1 (33) n (%)
same,"Grade ≥3 adverse events, term","[1]; cycle 1 onwards, AZD7762 21 mg plus gemcitabine 1,000 mg/m^2, n=3, n=1 per term",Atrial thrombosis Febrile neutropenia
same,"Adverse events grade ≥3, patients","[1]; cycle 1 onwards, AZD7762 30 mg plus gemcitabine 1,000 mg/m^2, n=7",4 (57) n (%)
same,"Adverse events grade ≥3, patients","[1]; cycle 1 onwards, AZD7762 32 mg plus gemcitabine 1,000 mg/m^2, n=6",3 (50) n (%)
same,"Grade ≥3 adverse events, term","[1]; cycle 1 onwards, AZD7762 32 mg plus gemcitabine 1,000 mg/m^2, n=6, n=1 per term",Neutropenia Flank pain Nausea Vomiting
same,"Adverse events grade ≥3, patients","[1]; cycle 1 onwards, AZD7762 40 mg plus gemcitabine 1,000 mg/m^2, n=8",4 (50) n (%)
same,"Adverse events grade ≥3, patients","[1]; cycle 1 onwards, AZD7762 plus gemcitabine, all doses, total n=42",22 (52) n (%)
same,Serious AE possibly related to AZD7762,"[1]; AZD7762 30 mg group, also judged causally related to gemcitabine",grade 3 chest pain
same,Serious AE possibly related to AZD7762,"[1]; AZD7762 40 mg group, also recorded as a DLT",grade 3 myocardial ischemia
same,Dose escalation limit due to cardiac AEs,Japanese patients,did not support dose escalation beyond 21 mg
same,Peak plasma concentration,[2]; 30 mg dose,291 ng/mL
same,Unchanged drug excreted in the urine,"[2]; first 48 h post-dosing, across all dose levels",11–20%
same,"AZD7762 exposure (Cmax, C24 h, and AUC) versus dose",[2]; over the dose range studied,increased linearly; also recorded: increased in a dose-proportional manner
"CN[C@@H]1C[C@H]2O[C@@](C)([C@@H]1OC)n1c3ccccc3c3c4c(c5c6ccccc6n2c5c31)C(=O)N[C@H]4O [UCN-01, 7-hydroxyl-staurosporine]",Dose-limiting toxicity,[3],prominent dose-limiting hyperglycemia
